The record followed here is the NIST ThermoML archive (doi:10.1016/j.jct.2013.08.018).

This data set is described as follows: osmotic coefficient (dimensionless); mn = molality of the nth substance listed, in mol/kg. As to conditions: 298.15 K, 101 kPa, Liquid.
[1] abbreviates: commercial osmometer Knauer K-7000, m1 = 1.
The mark [2] stands for this setting: commercial osmometer Knauer K-7000, m1 = 3.
Setting [3] is: commercial osmometer Gonotec 070, m1 = 0.5.
Setting [4] is: commercial osmometer Gonotec 070, m1 = 1.

Molecules are shown by their SMILES. Values joined by “and” are separate entries in the source; they are usually repeats but may differ in a detail not shown here. Equal entries are not always repeated. ± gives the expanded uncertainty stated by the source.

With `N.N.O=S(=O)(O)O` [ammonium sulfate] + O, the osmotic coefficient by setting is: under setting [1], 0.643 and 0.64 and 0.641; under setting [2], 0.629 and 0.627 and 0.625.
Take `[Br-].[Li+]` [lithium bromide] + O: the osmotic coefficient runs as follows: under setting [3], 0.978 and 0.97; under setting [4], 1.03 and 1.04.
Regarding `[Cl-].[Li+]` [lithium chloride] + O, the osmotic coefficient by setting is: under setting [3], 0.928 and 0.955; under setting [4], 0.987 and 0.978.
Turning to `[I-].[Li+]` [lithium iodide] + O, the osmotic coefficient under setting [3] was 1 and 1.01; the osmotic coefficient under setting [4] was 1.07 and 1.01.
With `[Br-].[K+]` [potassium bromide] + O, the osmotic coefficient was 0.907 and 0.905 under setting [3]; 0.919 and 0.917 under setting [4].
For `[Cl-].[K+]` [potassium chloride] + O, the osmotic coefficient reads like this: under setting [3], 0.905 ± 0.011; under setting [4], 0.915 ± 0.01; under setting [1], 0.895 and 0.897; under setting [2], 0.938 and 0.935 and 0.936.
As to `[I-].[K+]` [potassium iodide] + O, the osmotic coefficient under setting [3] is 0.916 and 0.923; the osmotic coefficient under setting [4] is 0.934 and 0.927.
With `O=[N+]([O-])[O-].[K+]` [potassium nitrate] + O, the osmotic coefficient under setting [1] is 0.746 and 0.744 and 0.747; the osmotic coefficient under setting [2] was 0.599 and 0.597 and 0.598.
With `[Br-].[Na+]` [sodium bromide] + O, the osmotic coefficient runs as follows: under setting [3], 0.953 and 0.934; under setting [4], 0.959 and 0.971.
Turning to `[Cl-].[Na+]` [sodium chloride] + O, the osmotic coefficient under setting [1] was 0.927 and 0.925; the osmotic coefficient under setting [2] turned out to be 1.05.
Consider `[I-].[Na+]` [sodium iodide] + O, for which the osmotic coefficient under setting [3] is 0.955 and 0.95; the osmotic coefficient under setting [4] was 0.985 and 1.
On to `O=[N+]([O-])[O-].[Na+]` [sodium nitrate] + O, for which the osmotic coefficient is 0.895 and 0.874 under setting [3]; 0.865 and 0.867 under setting [4]; 0.854 and 0.859 under setting [1]; 0.805 and 0.806 under setting [2].
For the compound `O=S(=O)([O-])[O-].[Na+].[Na+]` [sodium sulfate] + O, the osmotic coefficient was 0.717 and 0.69 under setting [3]; 0.658 and 0.642 under setting [4].
